Experimental findings from the METLIN SMRT retention time set (Domingo-Almenara et al. 2019) are described below.

This data set in a line: gradient 5% acetonitrile 3 min, to 50% in 2 min, to 85% in 15 min, held 3 min, 100 µL/min. To be noted: column: Zorbax Extend-C18 2.1 x 50 mm; eluents: water / acetonitrile, 0.1% formic acid. Summed up: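 A Zorbax Extend-C18 column (2.1 × 50 mm, 1.8 μm) run at 100 μL/min with water and acetonitrile, both containing 0.1% formic acid, separated mixtures of ~100 pure standards. The HPLC was coupled to a quadrupole time-of-flight mass spectrometer operated in positive and negative ionization mode, with dead and dwell volumes of 40 μL and 900 μL. Each retention time was taken from a computationally picked adduct peak that was then manually inspected.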
With `CCN(C(=O)c1cc(OC)cc(OC)c1)c1nc(-c2ccccc2)cs1`, the RP-LC retention time stood at 1260 s.

For the compound `Cc1cccc(S(=O)(=O)N2C[C@H](c3nc(-c4ccncc4)no3)[C@@H](C)C2)c1`, the RP-LC retention time turned out to be 939 s.

For `COc1ccc(-c2cc(C(=O)N3CCC(Cc4ccccc4)CC3)no2)cc1`, the RP-LC retention time came to 1120 s.

Compound `COCc1noc([C@@H]2CN(C(=O)CCc3c(C)noc3C)C[C@H]2C(N)=O)n1` showed an RP-LC retention time of 607 s.

`NC(=O)C1CCN(C(=O)c2cn(-c3cccc(Cl)c3)nn2)CC1` returned an RP-LC retention time of 646 s.

The compound `CN(C)S(=O)(=O)c1ccc2c(c1)N(CC(=O)NCC1COCCO1)C(=O)C1CCCCN21` (stereo unspecified) displayed an RP-LC retention time of 696 s.

As to `CSc1ccc(CNC(=O)C2CCCN(c3ncc(-c4ccccc4)cn3)C2)cc1` (stereo unspecified), the RP-LC retention time was determined as 1060 s.

As to `O=C(CCC[C@@H]1[C@H]2CCCN3CCC[C@@H](CN1C(=O)c1ccco1)[C@@H]23)Nc1ccccc1`, the RP-LC retention time came out at 614 s.

`Cc1cccc(-c2nnc(CC(=O)NCCC(C)C)o2)c1` came in with an RP-LC retention time of 828 s.

For `CCOC(=O)C1CCN(c2nnc(-c3nc(C4CC4)no3)c3ccccc23)CC1`, the RP-LC retention time worked out at 953 s.

Compound `CCCn1nc2n(c1=O)CCN(Cc1cn[nH]c1-c1cc(OC)ccc1OC)C2` displayed an RP-LC retention time of 616 s.

Consider `Cc1ccc(CN2C[C@@H]3C(=O)N(Cc4ccc5c(c4)OCO5)C(=O)[C@@H]3C2)cc1`, for which the RP-LC retention time was determined as 760 s.

The compound `CCCn1cc(S(=O)(=O)Nc2ccc(OC)c(OC)c2)c2cccnc21` returned an RP-LC retention time of 876 s.

In turn, `O=C(NCC1CCCCC1)c1ccc(CN2C(=O)C3CCCN3C(=O)c3ccccc32)cc1` (stereo unspecified) registered an RP-LC retention time of 824 s.

As to `CNc1cc(-c2ccccc2)[nH]n1`, the RP-LC retention time amounted to 553 s.

In turn, `CCN1CCN(CC2CCN(S(=O)(=O)Cc3cccc(Cl)c3)CC2)CC1` displayed an RP-LC retention time of 618 s.

`CCc1nc(OCC(=O)NCc2ccc(OC)cc2)c2ccccc2n1` returned an RP-LC retention time of 746 s.

Compound `Cc1nn(-c2ccccc2)c2c1N(CC(=O)NC(C)c1ccccc1)C(=O)CS2` (stereo unspecified) yielded an RP-LC retention time of 845 s.

`O=C(Nc1nc(-c2ccc(F)cc2)cs1)c1cccc(F)c1` came in with an RP-LC retention time of 1060 s.

`Cc1cc2nc(C(=O)Nc3cccc(F)c3)cc(C)n2n1` had an RP-LC retention time of 970 s.

Compound `c1cc(-c2nc(-c3ccc4c(c3)nnn4CCN3CCCCC3)no2)ccn1` had an RP-LC retention time of 599 s.

In turn, `COc1cccc(C(=O)CC2(O)C(=O)Nc3ccc(C)cc32)c1` (stereo unspecified) displayed an RP-LC retention time of 720 s.

Consider `CC1CCN(C(=O)c2ccc3c(c2)CC(=O)N3C)CC1`, for which the RP-LC retention time was determined as 692 s.

Consider `CCCCN(CC)c1nc(-c2ccccc2F)nc2ccccc12`, for which the RP-LC retention time was found to be 819 s.

Compound `COc1ccccc1-c1nc(-c2ccc(S(=O)(=O)N3CCCC3)cc2)no1` showed an RP-LC retention time of 1080 s.

With `Cn1cnc2cc(CNC(=O)c3cccc(Cl)c3)ccc21`, the RP-LC retention time came to 631 s.

The compound `COc1ccc(C(C)NC(=O)C2CCN(c3cncnc3N3CCOCC3)CC2)cc1` (stereo unspecified) came in with an RP-LC retention time of 601 s.

In the case of `CC(C)c1cc(C(=O)NCc2ccc3c(c2)OCO3)nc2cc(-c3ccccn3)nn12`, the RP-LC retention time was determined as 986 s.

The compound `COC[C@@H]1CN(S(=O)(=O)c2ccc(F)cc2)C[C@H]1c1ccccn1` registered an RP-LC retention time of 745 s.

For the compound `CCc1nnc(-c2cn(CC(=O)NCc3ccc(SC)cc3)c3ccccc23)o1`, the RP-LC retention time is 880 s.

The compound `CCCC(NC(=O)c1ccsc1)C(=O)Nc1nc2ccccc2[nH]1` (stereo unspecified) yielded an RP-LC retention time of 667 s.

For `O=C(COc1ccc(Cl)cc1Cl)NCc1ccsc1`, the RP-LC retention time is 920 s.

As to `Cc1csc(-c2cc(S(=O)(=O)NCCN3CCCC3)cn2CC(=O)N2CCCCC2)n1`, the RP-LC retention time was 649 s.

The compound `COc1ccc2c(CCNC(=O)c3ccccc3OC)c[nH]c2c1` yielded an RP-LC retention time of 788 s.

The compound `CNC(=O)c1sc2nc(-c3ccc(F)cc3)c(NCCOC)n2c1C` came in with an RP-LC retention time of 741 s.

Turning to `CCCCOc1ccc(-c2cc3c4nn(CC(=O)NC(C)C)c(=O)n4ccn3n2)cc1`, the RP-LC retention time came out at 954 s.

Take `Cc1ccsc1C(=O)Nc1ccc2c(c1)CCC(=O)N2C`: the RP-LC retention time amounted to 733 s.

As for `O=C(OCc1cc(-c2cccs2)on1)c1ncc(-c2ccccc2)o1`, the RP-LC retention time was found to be 1060 s.

Regarding `CCNc1cc(N2CCC(CCC(=O)NCc3cccc(C)c3)CC2)ncn1`, the RP-LC retention time was 659 s.

The compound `CCCN1C(=O)Cc2ccccc2C1C(=O)NCc1cccc(Br)c1` (stereo unspecified) showed an RP-LC retention time of 854 s.

`CCc1ccc(NC(=O)Nc2cccn3ncnc23)cc1` had an RP-LC retention time of 872 s.

The compound `Cn1ncc(N2CCCC(C(=O)N3CCc4ccccc4C3)C2)cc1=O` (stereo unspecified) displayed an RP-LC retention time of 732 s.

The compound `CCn1nccc1C(=O)NCCn1c(=O)n(Cc2ccc(C)cc2)c2cccnc21` showed an RP-LC retention time of 773 s.

In the case of `Fc1ccc(OCCc2noc(C3CCCN3)n2)cc1` (stereo unspecified), the RP-LC retention time came out at 631 s.

`CCN(CC)C(=O)Cn1nc2ncccn2c1=O` yielded an RP-LC retention time of 532 s.

As to `CC1CCCCN1CCCNC(=O)CN1C(=O)c2ccccc2Sc2ncccc21` (stereo unspecified), the RP-LC retention time stood at 661 s.

On to `COc1ccc(Cl)cc1NC(=O)Cn1nc2c(Oc3ccccc3C)nccn2c1=O`, for which the RP-LC retention time came out at 930 s.

Compound `Cc1c(C(=O)N2CCN(Cc3nc(C(C)(C)C)cs3)CC2)cccc1[N+](=O)[O-]` gave an RP-LC retention time of 740 s.

In the case of `Cc1cccc(CNc2cc(-n3cccn3)ncn2)c1`, the RP-LC retention time came to 648 s.

Turning to `CCCOc1ccccc1C(=O)N(Cc1ccc(Br)o1)C1CCS(=O)(=O)C1` (stereo unspecified), the RP-LC retention time is 927 s.

Compound `Cc1sc2ccn(CC(C)C)c(=O)c2c1C(=O)N1CCCCCC1` gave an RP-LC retention time of 897 s.

`O=C(CSc1nccnc1Sc1ccccc1)N1CCN(c2ccccn2)CC1` came in with an RP-LC retention time of 688 s.

With `Cc1sc2cc(C(=O)NCC3CC3)[nH]c2c1CN1CCCCC1`, the RP-LC retention time was determined as 634 s.

Consider `CCOC(=O)c1ccc(NC(=O)Cn2c(=O)nc(N3CCCC(C)C3)c3ccccc32)cc1` (stereo unspecified), for which the RP-LC retention time came out at 872 s.

For the compound `CCC(=O)N1CCc2cc(N3CC(C(=O)N4CCN(c5ccccn5)CC4)CC3=O)ccc21` (stereo unspecified), the RP-LC retention time stood at 584 s.

`O=C(NC1CCCC1)c1ccc(CN2CCN(Cc3ccc(F)cc3)C(=O)C2=O)cc1` gave an RP-LC retention time of 768 s.

Consider `Cc1cc(C)c(S(=O)(=O)Nc2ccc(-c3ccc4nnc(C)n4n3)cc2)cc1C`, for which the RP-LC retention time was 741 s.

As for `CCC1Oc2ccc(S(=O)(=O)N3CCC(C(=O)N4CCOCC4)CC3)cc2NC1=O` (stereo unspecified), the RP-LC retention time was 691 s.

Compound `COCCCNC(=O)c1nc2cccnc2n(CC(C)C)c1=O` returned an RP-LC retention time of 728 s.

For the compound `Cc1cc(Cl)ccc1NC(=O)C1CCN(S(C)(=O)=O)c2ccccc2O1` (stereo unspecified), the RP-LC retention time is 882 s.

In the case of `Cc1ccsc1C(=O)N1CCC2(CC1)NC(=O)N(Cc1ccc(Cl)cc1)C2=O`, the RP-LC retention time was 844 s.

Turning to `CN1c2cc(Cl)ccc2C(=O)NC12CCN(C(=O)Nc1ccccc1F)CC2`, the RP-LC retention time was 770 s.

As to `CS(=O)(=O)N1C[C@H]2CCN(Cc3cccc(Cl)c3F)C[C@H]21`, the RP-LC retention time came out at 607 s.

For the compound `CCc1csc(-c2ccc(N3CCN(C(=O)c4nn(C)c5ccccc45)CC3)nc2)n1`, the RP-LC retention time amounted to 966 s.

In turn, `CCc1ccc(-c2noc(Cn3c(=O)n(CC)c(=O)c4ccccc43)n2)cc1` came in with an RP-LC retention time of 1160 s.

`Cc1ccc(-c2noc(-c3nc(Cc4ccc(F)cc4)no3)n2)cc1` displayed an RP-LC retention time of 1180 s.

As to `O=C1CC2(CCCC2)CC(=O)N1CCCCNCC1COc2ccccc2O1` (stereo unspecified), the RP-LC retention time turned out to be 758 s.

Take `CCOC(=O)CNC(=O)C(c1ccccc1)n1cccc1` (stereo unspecified): the RP-LC retention time was 784 s.

For `Cc1ccc(N2C=C(C(=O)N3CCOCC3)S(=O)(=O)c3ccc(F)cc32)cc1C`, the RP-LC retention time came to 887 s.

Compound `CCc1nnc2ccc(-c3noc(-c4ccc(NC(C)=O)cc4)n3)cn12` gave an RP-LC retention time of 705 s.

Regarding `COc1cccc(-n2nnc(C(=O)O)c2C(F)(F)F)c1`, the RP-LC retention time was determined as 752 s.

In turn, `CCCCC(=O)N1CCN(c2nc3ccccc3cc2-c2noc(C)n2)CC1` displayed an RP-LC retention time of 913 s.

Take `Cc1noc(-c2ccc(NC(=O)c3cc(=O)c4ccccc4o3)cc2)n1`: the RP-LC retention time amounted to 790 s.

Take `COc1cc(=O)n2c(c1C(=O)Nc1cccc3c1CCCC3)CCCC2`: the RP-LC retention time was 762 s.

Regarding `Cc1c(C(=O)NCc2ccco2)nnn1-c1ccc(Br)cc1`, the RP-LC retention time stood at 844 s.

Consider `COc1cccc(-c2cc3n(n2)C(NCCc2cccs2)CNC3=O)c1` (stereo unspecified), for which the RP-LC retention time was found to be 838 s.

`O=C(c1ccc(F)c(F)c1)N1CCN(c2cc(-c3ccc(F)cc3)[nH]n2)CC1` returned an RP-LC retention time of 837 s.

For the compound `CCCN1C(=O)c2c(C(=O)NCc3cccc(F)c3)ncn2CC1(C)C(=O)NCCC(C)C` (stereo unspecified), the RP-LC retention time was found to be 843 s.

In turn, `CC(C)N1CCN(C(=O)C2=NN(c3ccc(Cl)cc3)c3ncccc3S2(=O)=O)CC1` returned an RP-LC retention time of 654 s.

Compound `CCCNC(=O)c1cc2c(-c3cccs3)nn(-c3ccccc3)c2n1C` gave an RP-LC retention time of 953 s.

In turn, `COc1cccc(-c2noc(Cn3nc4ccc(-c5ccc(C)c(C)c5)nn4c3=O)n2)c1OC` displayed an RP-LC retention time of 969 s.
